Values after ≈ are worked out from the molar mass of the structure shown. Like-named read-outs stand apart in the source and are kept apart here.

Experimental findings from US7432264B2, “Antimicrobial biaryl compounds” (Isis Pharmaceuticals, Inc., priority 2000, dated 2008) are described below.

Assay [1] has as its system E. coli ATCC 25922. Put plainly: Minimum inhibitory concentration (MIC), E. coli. Type of assay: cell-based, Escherichia coli. The procedure:
(§1) Bacterial Strains. The Streptococcus pyogenes strains, Klebsiella pneumoniae, Escherichia coli, Staphylococcus aureus, Enterococcus faecalis used in the antibacterial activity studies ATCC 14289, 49399, 13883, 25922, 13709, 29212, respectively, are obtained from the American Type Culture Collection, Rockville, Md. The strain E. coli imp— is a mutant strain of wild type E. coli with increased outer membrane permeability and was grown in LB broth at 37 °C. S. pyogenes strain is grown in Todd-Hewitt broth. S. aureus is grown in trypticase soy broth, E. faecalis in Todd-Hewitt broth, wild type E. coli and K. pneumoniae, in nutrient broth.
(§2) Determination of Minimum Inhibitory Concentrations (MICs). The assays were carried out in […] volume in duplicate in 96-well clear flat-bottom plates. The bacterial suspension from an overnight culture growth in appropriate medium was added to a solution of test compound in 4% DMSO in water. Final bacterial inoculum was approximately 10^5-10^6 CFU/well. The percent growth of the bacteria in test wells relative to that observed for a well containing no compound was determined by measuring absorbance at 595 nm (A595) after 24 h. […] Both ampicillin and tetracycline is used as antibiotic-positive controls in each screening assay for S. pyogenes, E. coli imp-, E. coli, S. aureus, E. faecalis, K pneumoniae and P. vulgaris. Ciprofloxacin is used as an antibiotic positive control in each screening assay for P. aeruginosa.

Assay [2] concerns S. aureus ATCC 13709. Put plainly: Minimum inhibitory concentration (MIC), S. aureus. Type of assay: cell-based, Staphylococcus aureus. The procedure: as §1, §2
Assay [3] deals with E. coli S30 bacterial extract (protein synthesis). Type of assay: biochemical. The conditions noted are these: versus 12. The procedure: Coupled Bacterial Transcription/Translation Assay. The DNA template, pBestLuc™ (Promega), is a plasmid containing a reporter gene for firefly luciferase fused to a strong tac promoter and ribosome binding site. Messenger RNA from 1 μg pBestLuc was transcribed and translated in E. coli S30 bacterial extract in the presence or absence of test compound. Compounds were tested in a black 96 well microtiter plate with an assay volume of 35 μL. Each test well contained: 5 μL test compound, 13 μL S30 premix (Promega), 4 μL 10× complete amino acid mix (1 mM each), 5 μL E. coli S30 extract and 8 μL of […] pBestLuc™. The transcription/translation reaction was incubated for 35 minutes at 37° C. followed by detection of functional luciferase with the addition of 30 μL LucLite™ (Packard). Light output was quantitated on a Packard TopCount.

Where [4] appears, read: Escherichia coli, ATCC25922, 24 h, read-out: MIC (E. coli).
Setting [5] is: Staphylococcus aureus, ATCC13709, 24 h, read-out: MIC (S. aureus).

As a reminder, the MIC is the lowest concentration that inhibits growth of the organism. `CC(=O)NCC1CN(c2ccc(N3CCOCC3)c(F)c2)C(=O)O1` (centres unmarked): the MIC in assay [1] (Escherichia coli, ATCC25922; alone (no serum); read-out: MIC (E. coli) alone) is 2 to 3 mM (≈ 675 to 1010 µg/mL); in assay [1] (Escherichia coli, ATCC25922; with serum; read-out: MIC (E. coli) +serum), 3 to 6 mM (≈ 1010 to 2020 µg/mL); in assay [2] (Staphylococcus aureus, ATCC13709; alone (no serum); read-out: MIC (S. aureus) alone), 2 mM (≈ 675 µg/mL); in assay [2] (Staphylococcus aureus, ATCC13709; with serum; read-out: MIC (S. aureus) +serum), 2 to 3 mM (≈ 675 to 1010 µg/mL).
Take `CN(C)CCCOc1ccc(C(NC(=O)c2ccc(-c3cccc(NC(=O)c4ccc(-c5cccc(F)c5)cc4)c3)o2)C(=O)N2CCNCC2)cc1` (centres unmarked): the MIC in assay [1] (setting [4]) is 6 to 13 mM (≈ 4220 to 9150 µg/mL); in assay [2] (setting [5]) it was 3 to 6 mM (≈ 2110 to 4220 µg/mL).
For `CC(=O)c1ccccc1-c1ccc(C(=O)Nc2cccc(-c3ccc(C(=O)NC(C(=O)N4CCNCC4)c4ccc(OCCCN(C)C)cc4)o3)c2)cc1` (centres unmarked) the same measures were more than 100 mM and 6 to 13 mM (≈ 4370 to 9460 µg/mL).
As to `CN(C)CCCOc1ccc(C(NC(=O)c2ccc(-c3cccc(NC(=O)c4ccc5[nH]c(=O)c(=O)[nH]c5c4)c3)o2)C(N)=O)cc1` (centres unmarked) [Compound 21], in assay [3], the “fold less potent than 12” value is on record as approximately 3 fold.
Regarding `CCc1ccc(-c2ccc(C(=O)Nc3cccc(-c4ccc(C(=O)NC(C(=O)N5CCNCC5)c5ccc(OCCCN(C)C)cc5)o4)c3)cc2)cc1` (centres unmarked) [Compound 35], the minimum inhibitory concentration (MIC) in assay [1] (setting [4]) is 50 to 100 mM (≈ 35700 to 71400 µg/mL); in assay [2] (setting [5]) it was 6 to 13 mM (≈ 4280 to 9280 µg/mL).
Turning to `CCCc1ccc(-c2ccc(C(=O)Nc3cccc(-c4ccc(C(=O)NC(C(=O)N5CCNCC5)c5ccc(OCCCN(C)C)cc5)o4)c3)cc2)cc1` (centres unmarked) [Compound 36], the minimum inhibitory concentration (MIC) in assay [1] (setting [4]) was more than 100 mM; in assay [2] (setting [5]) it was 13 to 25 mM (≈ 9460 to 18200 µg/mL).
Turning to `CN(C)CCCOc1ccc(C(NC(=O)c2ccc(-c3cccc(NC(=O)c4ccc(-c5ccc(C(C)(C)C)cc5)cc4)c3)o2)C(=O)N2CCNCC2)cc1` (centres unmarked) [Compound 37], the minimal inhibitory concentration (MIC) in assay [1] (setting [4]) and in assay [2] (setting [5]) was more than 100 mM throughout.
For `Cc1ccccc1-c1ccc(C(=O)Nc2cccc(-c3ccc(C(=O)NC(C(=O)N4CCNCC4)c4ccc(OCCCN(C)C)cc4)o3)c2)cc1` (centres unmarked) [Compound 38], the MIC in assay [1] (setting [4]) and in assay [2] (setting [5]) was 3 to 6 mM (≈ 2100 to 4200 µg/mL) each time.
With `Cc1cccc(-c2ccc(C(=O)Nc3cccc(-c4ccc(C(=O)NC(C(=O)N5CCNCC5)c5ccc(OCCCN(C)C)cc5)o4)c3)cc2)c1` (centres unmarked) [Compound 39], the MIC in assay [1] (setting [4]) and in assay [2] (setting [5]) was 13 to 25 mM (≈ 9100 to 17500 µg/mL) each time.
Consider `CCc1ccccc1-c1ccc(C(=O)Nc2cccc(-c3ccc(C(=O)NC(C(=O)N4CCNCC4)c4ccc(OCCCN(C)C)cc4)o3)c2)cc1` (centres unmarked) [Compound 41], for which the MIC in assay [1] (setting [4]) was in the range of 13 to 25 mM (≈ 9280 to 17800 µg/mL); in assay [2] (setting [5]), 3 to 6 mM (≈ 2140 to 4280 µg/mL).
As to `Cc1cccc(-c2ccc(C(=O)Nc3cccc(-c4ccc(C(=O)NC(C(=O)N5CCNCC5)c5ccc(OCCCN(C)C)cc5)o4)c3)cc2)c1C` (centres unmarked) [Compound 42], the minimum inhibitory concentration (MIC) in assay [1] (Escherichia coli, ATCC25922, 24 h; read-out: MIC (E. coli)) was 13 to 25 mM (≈ 9280 to 17800 µg/mL); in assay [2] (Staphylococcus aureus, ATCC13709, 24 h; read-out: MIC (S. aureus)) it was 3 to 6 mM (≈ 2140 to 4280 µg/mL).
In the case of `Cc1ccc(C)c(-c2ccc(C(=O)Nc3cccc(-c4ccc(C(=O)NC(C(=O)N5CCNCC5)c5ccc(OCCCN(C)C)cc5)o4)c3)cc2)c1` (centres unmarked) [Compound 43], the minimum inhibitory concentration (MIC) in assay [1] (setting [4]) is 25 to 50 mM (≈ 17800 to 35700 µg/mL); in assay [2] (setting [5]), 13 to 25 mM (≈ 9280 to 17800 µg/mL).
As for `Cc1cccc(C)c1-c1ccc(C(=O)Nc2cccc(-c3ccc(C(=O)NC(C(=O)N4CCNCC4)c4ccc(OCCCN(C)C)cc4)o3)c2)cc1` (centres unmarked) [Compound 44], the values for the MIC in assay [1] (setting [4]) and in assay [2] (setting [5]) were 25 to 50 mM (≈ 17800 to 35700 µg/mL) and 13 to 25 mM (≈ 9280 to 17800 µg/mL), respectively.
The matching figures for `Cc1cc(C)c(-c2ccc(C(=O)Nc3cccc(-c4ccc(C(=O)NC(C(=O)N5CCNCC5)c5ccc(OCCCN(C)C)cc5)o4)c3)cc2)c(C)c1` (centres unmarked) [Compound 45]: 50 to 100 mM (≈ 36400 to 72800 µg/mL) and 13 to 25 mM (≈ 9460 to 18200 µg/mL).
For `CN(C)CCCOc1ccc(C(NC(=O)c2ccc(-c3cccc(NC(=O)c4ccc(-c5ccccc5Cl)cc4)c3)o2)C(=O)N2CCNCC2)cc1` (centres unmarked) [Compound 47] the same measures were 6 to 13 mM (≈ 4320 to 9360 µg/mL) and 25 to 50 mM (≈ 18000 to 36000 µg/mL).
With `CN(C)CCCOc1ccc(C(NC(=O)c2ccc(-c3cccc(NC(=O)c4ccc(-c5cccc(Cl)c5)cc4)c3)o2)C(=O)N2CCNCC2)cc1` (centres unmarked) [Compound 48], the MIC in assay [1] (setting [4]) and in assay [2] (setting [5]) was 13 to 25 mM (≈ 9360 to 18000 µg/mL) in each case.
In the case of `CN(C)CCCOc1ccc(C(NC(=O)c2ccc(-c3cccc(NC(=O)c4ccc(-c5cc(Cl)cc(Cl)c5)cc4)c3)o2)C(=O)N2CCNCC2)cc1` (centres unmarked) [Compound 49], the MIC in assay [1] (setting [4]) and in assay [2] (setting [5]) was more than 100 mM throughout.
